Laboratory results: patent publication US20260250318A1, “COMPOSITIONS AND METHODS FOR CROSSING THE BLOOD BRAIN BARRIER” (VOYAGER THERAPEUTICS, INC., priority 2022, published 2026)

Key:
[1] = test system: brains, heart, liver, muscle, and DRG of the NHPs; assay: Maturation of TTM-001 and TTM-002 capsids, NGS enrichment in NHP tissues; format: in vivo; conditions: relative to AAV9 control
How it was run: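 Variants carry mutations within and flanking the loop IV peptide insert: positions 450–466 were triplet-randomized, while positions 449–466 received low-frequency point mutations. The combined pool went into two NHPs, and each peptide was scored by NGS enrichment ratio against AAV9.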

brain = assay: Matured TTM-001 and TTM-002 variants, NGS enrichment in mouse brain; format: in vivo, mice; conditions: relative to AAV9 control
[2] = NGS fold-enrichment of matured AAV capsid variants, NHP brain, RNA
[3] = NGS fold-enrichment, DRG of NHPs
[4] = NGS fold-enrichment, RNA, brain of NHPs
[5] = NGS fold-enrichment, heart of NHPs
[6] = NGS fold-enrichment, liver DNA of NHPs
[7] = NGS fold-enrichment, liver RNA of NHPs
[8] = NGS fold-enrichment, muscle of NHPs
[9] = NGS fold-enrichment, brain of mice
[10] = NGS fold-enrichment of RNA, NHP brain
[11] = NGS fold-enrichment, NHP liver DNA
[12] = NGS fold-enrichment, NHP liver RNA
[13] = NGS fold-enrichment, NHP muscle
[14] = NGS fold-enrichment, mouse brain

Sequence	Fold Enrichment relative to AAV9, Brain (NHP) [1, 2] [fold]	Fold Enrichment relative to AAV9, DRG (NHP) ([1]; NHP DRG) [fold]	Fold Enrichment relative to AAV9, Heart (NHP) ([1]; NHP heart) [fold]	Fold Enrichment relative to AAV9, Liver DNA (NHP) ([1]; NHP liver, DNA) [fold]	Fold Enrichment relative to AAV9, Liver RNA (NHP) ([1]; NHP liver, RNA) [fold]	Fold Enrichment relative to AAV9, Muscle (NHP) ([1]; NHP muscle) [fold]	Fold Enrichment relative to AAV9, Brain (Mouse) (brain; mouse brain) [fold]	Fold Enrichment relative to AAV9, Brain (NHP) [1, 10] [fold]	Fold Enrichment relative to AAV9, DRG (NHP) ([1]; NGS fold-enrichment, NHP DRG) [fold]	Fold Enrichment relative to AAV9, Heart (NHP) ([1]; NGS fold-enrichment, NHP heart) [fold]	Fold Enrichment relative to AAV9, Liver DNA (NHP) [1, 11] [fold]	Fold Enrichment relative to AAV9, Liver RNA (NHP) [1, 12] [fold]	Fold Enrichment relative to AAV9, Muscle (NHP) [1, 13] [fold]	Fold Enrichment relative to AAV9, Brain (Mouse) (brain; [14]) [fold]	further results
KTVHGSGSPHSKAQSQQT	51.057	0.000	0.000	0.146	0.143	0.000	54.185	–	–	–	–	–	–	–	–
KTVIGSGSPHSKALNQQT	–	–	–	–	–	–	–	–	–	–	–	–	–	–	Fold Enrichment relative to AAV9, DRG (NHP) [1, 3]: 0.000 fold; Fold Enrichment relative to AAV9, Brain (NHP) [1, 4]: 62.358 fold; Fold Enrichment relative to AAV9, Heart (NHP) [1, 5]: 0.310 fold; Fold Enrichment relative to AAV9, Liver DNA (NHP) [1, 6]: 0.245 fold; Fold Enrichment relative to AAV9, Liver RNA (NHP) [1, 7]: 0.062 fold; Fold Enrichment relative to AAV9, Muscle (NHP) [1, 8]: 0.000 fold; Fold Enrichment relative to AAV9, Brain (Mouse) (brain; [9]): 60.369 fold
KTVIGSGSPHSKSQNQQT	54.603	0.000	0.000	0.106	0.000	0.000	69.121	–	–	–	–	–	–	–	–
KTVKDSGSPHSKAQNQQT	–	–	–	–	–	–	–	–	–	–	–	–	–	–	Fold Enrichment relative to AAV9, DRG (NHP) [1, 3]: 0.000 fold; Fold Enrichment relative to AAV9, Brain (NHP) [1, 4]: 60.216 fold; Fold Enrichment relative to AAV9, Heart (NHP) [1, 5]: 0.019 fold; Fold Enrichment relative to AAV9, Liver DNA (NHP) [1, 6]: 0.251 fold; Fold Enrichment relative to AAV9, Liver RNA (NHP) [1, 7]: 0.443 fold; Fold Enrichment relative to AAV9, Muscle (NHP) [1, 8]: 0.000 fold; Fold Enrichment relative to AAV9, Brain (Mouse) (brain; [9]): 87.334 fold
KTVKGSGSPHSKAQDQQT	–	–	–	–	–	–	–	–	–	–	–	–	–	–	Fold Enrichment relative to AAV9, DRG (NHP) [1, 3]: 0.000 fold; Fold Enrichment relative to AAV9, Brain (NHP) [1, 4]: 61.175 fold; Fold Enrichment relative to AAV9, Heart (NHP) [1, 5]: 0.041 fold; Fold Enrichment relative to AAV9, Liver DNA (NHP) [1, 6]: 0.090 fold; Fold Enrichment relative to AAV9, Liver RNA (NHP) [1, 7]: 0.432 fold; Fold Enrichment relative to AAV9, Muscle (NHP) [1, 8]: 0.000 fold; Fold Enrichment relative to AAV9, Brain (Mouse) (brain; [9]): 58.114 fold
KTVNAHDSPHKSGQNQLT	–	–	–	–	–	–	–	79.137	0.000	0.233	0.045	0.753	0.178	29.254	–
KTVNASGSPHSKAQNQLT	51.249	0.000	0.000	0.268	0.000	0.000	99.559	–	–	–	–	–	–	–	–
KTVNGGGSPHSKAQHQQT	58.602	0.729	0.000	0.043	0.000	0.000	138.544	–	–	–	–	–	–	–	–
KTVNGGGSPHSKAQNHQT	54.246	0.375	0.024	0.146	0.000	0.000	67.188	–	–	–	–	–	–	–	–
KTVNGGGSPHSKAQNLQT	52.788	0.000	0.031	0.165	0.000	0.000	83.215	–	–	–	–	–	–	–	–
KTVNGGGSPHSKAQNQQS	–	–	–	–	–	–	–	–	–	–	–	–	–	–	Fold Enrichment relative to AAV9, DRG (NHP) [1, 3]: 0.062 fold; Fold Enrichment relative to AAV9, Brain (NHP) [1, 4]: 59.871 fold; Fold Enrichment relative to AAV9, Heart (NHP) [1, 5]: 0.020 fold; Fold Enrichment relative to AAV9, Liver DNA (NHP) [1, 6]: 0.185 fold; Fold Enrichment relative to AAV9, Liver RNA (NHP) [1, 7]: 0.080 fold; Fold Enrichment relative to AAV9, Muscle (NHP) [1, 8]: 0.000 fold; Fold Enrichment relative to AAV9, Brain (Mouse) (brain; [9]): 61.847 fold
KTVNGGGSPHSKAQSQQT	–	–	–	–	–	–	–	–	–	–	–	–	–	–	Fold Enrichment relative to AAV9, DRG (NHP) [1, 3]: 0.000 fold; Fold Enrichment relative to AAV9, Brain (NHP) [1, 4]: 67.634 fold; Fold Enrichment relative to AAV9, Heart (NHP) [1, 5]: 0.055 fold; Fold Enrichment relative to AAV9, Liver DNA (NHP) [1, 6]: 0.210 fold; Fold Enrichment relative to AAV9, Liver RNA (NHP) [1, 7]: 0.000 fold; Fold Enrichment relative to AAV9, Muscle (NHP) [1, 8]: 0.000 fold; Fold Enrichment relative to AAV9, Brain (Mouse) (brain; [9]): 160.711 fold
KTVNGGGSPHSKSQNQQT	56.114	0.116	0.000	0.040	0.000	0.000	170.548	–	–	–	–	–	–	–	–
KTVNGHDSPHKIGHNQQT	–	–	–	–	–	–	–	120.985	0.000	0.029	0.009	0.000	0.000	10.167	–
KTVNGHDSPHKSGHTQQT	–	–	–	–	–	–	–	82.246	0.000	0.378	0.123	0.000	1.142	6.160	–
KTVNGHDSPHKSGQNHLT	–	–	–	–	–	–	–	81.516	0.000	0.100	0.028	0.000	0.017	16.096	–
KTVNGHDSPHKSGQNLHT	–	–	–	–	–	–	–	88.080	0.000	0.080	0.039	0.000	0.000	11.363	–
KTVNGHDSPHKSGQNLLT	–	–	–	–	–	–	–	83.969	0.114	0.040	0.035	0.000	0.023	18.894	–
KTVNGHDSPHKSGQTRQT	–	–	–	–	–	–	–	133.276	0.251	0.080	0.129	0.034	0.093	7.174	–
KTVNGHDSPHKSGRNQET	–	–	–	–	–	–	–	102.695	0.000	0.286	0.027	0.000	0.000	11.958	–
KTVNGHDSPHKSLQNQQT	–	–	–	–	–	–	–	112.925	0.000	0.301	0.322	0.000	0.059	16.726	–
KTVNGHDSPHKSRQSQQT	–	–	–	–	–	–	–	76.458	0.000	0.063	0.021	0.000	0.000	8.136	–
KTVNGNGSPHSKAQNHQT	–	–	–	–	–	–	–	–	–	–	–	–	–	–	Fold Enrichment relative to AAV9, DRG (NHP) [1, 3]: 0.000 fold; Fold Enrichment relative to AAV9, Brain (NHP) [1, 4]: 68.889 fold; Fold Enrichment relative to AAV9, Heart (NHP) [1, 5]: 0.000 fold; Fold Enrichment relative to AAV9, Liver DNA (NHP) [1, 6]: 0.030 fold; Fold Enrichment relative to AAV9, Liver RNA (NHP) [1, 7]: 0.000 fold; Fold Enrichment relative to AAV9, Muscle (NHP) [1, 8]: 0.000 fold; Fold Enrichment relative to AAV9, Brain (Mouse) (brain; [9]): 52.482 fold
